Laboratory results from ChEMBL document CHEMBL4837202, “Design, synthesis of novel celastrol derivatives and study on their antitumor growth through HIF-1α pathway” (Eur J Med Chem, 2021).
In brackets after ≈: the same amount, converted by molar mass. Activity calls are given as the source filed them. The calls are words filed in the database; no cut-off is given here.

Experiments:
Hep 3B2 [1] = assay: Cytotoxicity against human Hep3B cells assessed as reduction in cell viability incubated for 24 hrs under normaxic condition by MTT assay; assay type: cell-based
[2] = Solubility of the compound in water measured by UV-Visible spectral analysis; assay type: physicochemical
HCT-116 [3] = assay: Antitumour activity against human HCT-116 cells xenografted BALB/c mouse with assessed as morphological changes in tumour tissue at 10 mg/kg, ip administered every day measured after 21 days H and E staining based optical microscopic method; assay type: functional, organism-based; conditions: time 21.0 day
HCT-116 [4] = assay: Antitumour activity against human HCT-116 cells xenografted in nude BALB/c mouse assessed as tumour growth inhibition at 10 mg/kg, ip administered for 20 days relative to control; assay type: functional; parameters: scale not given: the % may be the effect or the level left; conditions: time 20 day
[5] = Toxicity in BALB/c mouse xenografted […] HCT-116 cells assessed as effect on body weight at 10 mg/kg, ip administered every day measured after 21 days; assay type: organism-based; conditions: in vivo, 504 h, time 21 day
Hep 3B2 [6] = assay: Induction of apoptosis in human Hep3B cells assessed as early apoptotic cells at 1 uM incubated for 24 hrs by PI and annexin V-FITC staining based flow cytometry (reference value: 1.2%); assay type: functional
Hep 3B2 [7] = assay: Inhibition of hypoxia-induced HIF1alpha protein expression in human Hep3B cells incubated for 12 hrs in presence of 1% O2 under hypoxic condition by Western blot analysis; assay type: functional, cell-based; conditions: dose 1-10 µM
Hep 3B2 [8] = assay: Induction of apoptosis in human Hep3B cells assessed as necrotic cells at 1 uM incubated for 24 hrs by PI and annexin V-FITC staining based flow cytometry (reference value: 0.1%); assay type: functional
Hep 3B2 [9] = assay: Inhibition of cell migration in human Hep3B cells at incubated for 24 hrs by scratch wound healing assay; assay type: functional, cell-based; conditions: dose 1-10 µM
Hep 3B2 [10] = assay: Inhibition of cell migration in human Hep3B cells at incubated for 48 hrs by scratch wound healing assay; assay type: functional, cell-based; conditions: dose 1-10 µM
Hep 3B2 [11] = assay: Induction of apoptosis in human Hep3B cells assessed as viable cells at 1 uM incubated for 24 hrs by PI and annexin V-FITC staining based flow cytometry (reference value: 97.0%); assay type: functional; conditions: read-out: Activity
Hep 3B2 [12] = assay: Induction of apoptosis in human Hep3B cells assessed as necrotic cells at 3 uM incubated for 24 hrs by PI and annexin V-FITC staining based flow cytometry (reference value: 0.1%); assay type: functional
Hep 3B2 [13] = assay: Induction of apoptosis in human Hep3B cells assessed as early apoptotic cells at 10 uM incubated for 24 hrs by PI and annexin V-FITC staining based flow cytometry (reference value: 1.2%); assay type: functional
Hep 3B2 [14] = assay: Induction of apoptosis in human Hep3B cells assessed as necrotic cells at 10 uM incubated for 24 hrs by PI and annexin V-FITC staining based flow cytometry (reference value: 0.1%); assay type: functional
Hep 3B2 [15] = assay: Induction of apoptosis in human Hep3B cells assessed as early apoptotic cells at 3 uM incubated for 24 hrs by PI and annexin V-FITC staining based flow cytometry (reference value: 1.2%); assay type: functional
Hep 3B2 [16] = assay: Induction of apoptosis in human Hep3B cells assessed as late apoptotic cells at 1 uM incubated for 24 hrs by PI and annexin V-FITC staining based flow cytometry (reference value: 1.6%); assay type: functional
HCT-116 [17] = assay: Antitumour activity against human HCT-116 cells xenografted BALB/c mouse with assessed as morphological changes in tumour tissue at 5 mg/kg, ip administered every day measured after 21 days H and E staining based optical microscopic method; assay type: functional, organism-based; conditions: time 21.0 day
Hep 3B2 [18] = assay: Induction of apoptosis in human Hep3B cells assessed as viable cells at 3 uM incubated for 24 hrs by PI and annexin V-FITC staining based flow cytometry (reference value: 97.0%); assay type: functional; conditions: read-out: Activity
Hep 3B2 [19] = assay: Antiproliferative activity against human Hep3B cells assessed as reduction in colony formation incubated for 7 days by crystal violet staining based assay; assay type: functional, cell-based; conditions: dose 1-10 µM, time 7.0 day
HCT-116 [20] = assay: Antitumour activity against human HCT-116 cells xenografted in nude BALB/c mouse assessed as tumour growth inhibition at 5 mg/kg, ip administered for 20 days relative to control; assay type: functional; parameters: scale not given: the % may be the effect or the level left; conditions: time 20 day
Hep 3B2 [21] = assay: Induction of apoptosis in human Hep3B cells assessed as late apoptotic cells at 10 uM incubated for 24 hrs by PI and annexin V-FITC staining based flow cytometry (reference value: 1.6%); assay type: functional
Hep 3B2 [22] = assay: Induction of apoptosis in human Hep3B cells assessed as viable cells at 10 uM incubated for 24 hrs by PI and annexin V-FITC staining based flow cytometry (reference value: 97.0%); assay type: functional; conditions: read-out: Activity
Hep 3B2 [23] = assay: Induction of apoptosis in human Hep3B cells assessed as late apoptotic cells at 3 uM incubated for 24 hrs by PI and annexin V-FITC staining based flow cytometry (reference value: 1.6%); assay type: functional
[24] = Toxicity in BALB/c mouse xenografted […] HCT-116 cells assessed as effect on body weight at 5 mg/kg, ip administered every day measured after 21 days; assay type: organism-based; conditions: in vivo, 504 h, time 21 day

CC1=C(O)C(=O)C=C2C1=CC=C1[C@@]2(C)CC[C@@]2(C)[C@@H]3C[C@](C)(C(=O)OCC(=O)Nc4cccc5ncccc45)CC[C@]3(C)CC[C@]12C
IC50 (Hep 3B2 [1]): 1110 nM

COc1ccc(-n2cc(CNC(=O)COC(=O)[C@]3(C)CC[C@]4(C)CC[C@]5(C)C6=CC=C7C(=CC(=O)C(O)=C7C)[C@]6(C)CC[C@@]5(C)[C@@H]4C3)nn2)cc1
IC50 (Hep 3B2 [1]): 9110 nM

CC1=C(O)C(=O)C=C2C1=CC=C1[C@@]2(C)CC[C@@]2(C)[C@@H]3C[C@](C)(C(=O)OCC(=O)Nc4cc(C)on4)CC[C@]3(C)CC[C@]12C
IC50 (Hep 3B2 [1]): 3070 nM

CC1=C(O)C(=O)C=C2C1=CC=C1[C@@]2(C)CC[C@@]2(C)[C@@H]3C[C@](C)(C(=O)O)CC[C@]3(C)CC[C@]12C [CELASTROL]
solubility [2]: 38.2 µg/mL (≈ 84.8 µM) | IC50 (Hep 3B2 [1]): 760 nM

CC1=C(O)C(=O)C=C2C1=CC=C1[C@@]2(C)CC[C@@]2(C)[C@@H]3C[C@](C)(C(=O)OCCOc4cc(=O)oc5ccccc45)CC[C@]3(C)CC[C@]12C
IC50 (Hep 3B2 [1]): 134000 nM

CC1=C(O)C(=O)C=C2C1=CC=C1[C@@]2(C)CC[C@@]2(C)[C@@H]3C[C@](C)(C(=O)OCC(=O)NCc4cn(-c5ccccc5)nn4)CC[C@]3(C)CC[C@]12C
IC50 (Hep 3B2 [1]): 1160 nM

CC1=C(O)C(=O)C=C2C1=CC=C1[C@@]2(C)CC[C@@]2(C)[C@@H]3C[C@](C)(C(=O)OCC(=O)Nc4ccncc4)CC[C@]3(C)CC[C@]12C
IC50 (Hep 3B2 [1]): 234000 nM

CCOP(=O)(OCC)C(NC(=O)COC(=O)[C@]1(C)CC[C@]2(C)CC[C@]3(C)C4=CC=C5C(=CC(=O)C(O)=C5C)[C@]4(C)CC[C@@]3(C)[C@@H]2C1)c1ccc(OC)cc1 (some centres not stated)
IC50 (Hep 3B2 [1]): 1480 nM

CC1=C(O)C(=O)C=C2C1=CC=C1[C@@]2(C)CC[C@@]2(C)[C@@H]3C[C@](C)(C(=O)OCCOc4ccc5cccnc5c4)CC[C@]3(C)CC[C@]12C
IC50 (Hep 3B2 [1]): 5270 nM

CC1=C(O)C(=O)C=C2C1=CC=C1[C@@]2(C)CC[C@@]2(C)[C@@H]3C[C@](C)(C(=O)OCC(=O)Nc4cccc5cccnc45)CC[C@]3(C)CC[C@]12C
IC50 (Hep 3B2 [1]): 1690 nM

CCOP(=O)(OCC)C(NC(=O)COC(=O)[C@]1(C)CC[C@]2(C)CC[C@]3(C)C4=CC=C5C(=CC(=O)C(O)=C5C)[C@]4(C)CC[C@@]3(C)[C@@H]2C1)c1ccc(F)cc1 (some centres not stated)
IC50 (Hep 3B2 [1]): 2330 nM

CCOP(=O)(OCC)C(NC(=O)COC(=O)[C@]1(C)CC[C@]2(C)CC[C@]3(C)C4=CC=C5C(=CC(=O)C(O)=C5C)[C@]4(C)CC[C@@]3(C)[C@@H]2C1)c1ccccc1 (some centres not stated)
IC50 (Hep 3B2 [1]): 1170 nM

CC1=C(O)C(=O)C=C2C1=CC=C1[C@@]2(C)CC[C@@]2(C)[C@@H]3C[C@](C)(C(=O)OCC(=O)Nc4ccc5ncccc5c4)CC[C@]3(C)CC[C@]12C
IC50 (Hep 3B2 [1]): 2910 nM

CC1=C(O)C(=O)C=C2C1=CC=C1[C@@]2(C)CC[C@@]2(C)[C@@H]3C[C@](C)(C(=O)OCCOc4cc(C)oc(=O)c4)CC[C@]3(C)CC[C@]12C
IC50 (Hep 3B2 [1]): 1160 nM

CC1=C(O)C(=O)C=C2C1=CC=C1[C@@]2(C)CC[C@@]2(C)[C@@H]3C[C@](C)(C(=O)OCC(=O)Nc4cnc5ccccc5c4)CC[C@]3(C)CC[C@]12C
IC50 (Hep 3B2 [1]): 1040 nM

CC1=C(O)C(=O)C=C2C1=CC=C1[C@@]2(C)CC[C@@]2(C)[C@@H]3C[C@](C)(C(=O)OCC(=O)Nc4ccc(F)cn4)CC[C@]3(C)CC[C@]12C
IC50 (Hep 3B2 [1]): 1260 nM

CC1=C(O)C(=O)C=C2C1=CC=C1[C@@]2(C)CC[C@@]2(C)[C@@H]3C[C@](C)(C(=O)OCC(=O)NCc4cn(-c5ccc(Cl)cc5)nn4)CC[C@]3(C)CC[C@]12C
IC50 (Hep 3B2 [1]): 21900 nM

CC1=C(O)C(=O)C=C2C1=CC=C1[C@@]2(C)CC[C@@]2(C)[C@@H]3C[C@](C)(C(=O)OCC(=O)Nc4ccc(F)nc4)CC[C@]3(C)CC[C@]12C
IC50 (Hep 3B2 [1]): 4210 nM

CCOP(=O)(OCC)C(NC(=O)COC(=O)[C@]1(C)CC[C@]2(C)CC[C@]3(C)C4=CC=C5C(=CC(=O)C(O)=C5C)[C@]4(C)CC[C@@]3(C)[C@@H]2C1)c1ccc(C)cc1 (some centres not stated)
IC50 (Hep 3B2 [1]): 4550 nM

O=c1[nH]cc(F)c(=O)[nH]1 [FLUOROURACIL]
Activity (HCT-116 [3]): Active | Activity (HCT-116 [4]): 59.58% | Activity [5]: Non-Toxic

CC1=C(O)C(=O)C=C2C1=CC=C1[C@@]2(C)CC[C@@]2(C)[C@@H]3C[C@](C)(C(=O)OCC(=O)Nc4ccnc5ccccc45)CC[C@]3(C)CC[C@]12C
IC50 (Hep 3B2 [1]): 4000 nM

CC1=C(O)C(=O)C=C2C1=CC=C1[C@@]2(C)CC[C@@]2(C)[C@@H]3C[C@](C)(C(=O)OCCOc4cnc5ccccc5c4)CC[C@]3(C)CC[C@]12C
Activity (Hep 3B2 [6]): 1.9% | Activity (Hep 3B2 [7]): Dose-Dependent Effect | Activity (Hep 3B2 [8]): 0.2% | inhibition (Hep 3B2 [9]): Dose-Dependent Effect | inhibition (Hep 3B2 [10]): Dose-Dependent Effect | viability at 1 µM (Hep 3B2 [11]): 96.6% | Activity (Hep 3B2 [12]): 0% | Activity (Hep 3B2 [13]): 6.2% | Activity (HCT-116 [3]): Active | solubility [2]: 28.1 µg/mL (≈ 45.2 µM) | Activity (Hep 3B2 [14]): 0.2% | Activity (Hep 3B2 [15]): 1.9% | Activity (Hep 3B2 [16]): 1.4% | Activity (HCT-116 [4]): 74.3% | Activity (HCT-116 [17]): Active | viability at 3 µM (Hep 3B2 [18]): 96.1% | Activity (Hep 3B2 [19]): Dose-Dependent Effect | IC50 (Hep 3B2 [1]): 16800 nM | Activity (HCT-116 [20]): 60.38% | Activity (Hep 3B2 [21]): 5.7% | viability at 10 µM (Hep 3B2 [22]): 87.9% | Activity (Hep 3B2 [23]): 2% | Activity [24]: Non-Toxic | Activity [5]: Non-Toxic

CC1=C(O)C(=O)C=C2C1=CC=C1[C@@]2(C)CC[C@@]2(C)[C@@H]3C[C@](C)(C(=O)OCC(=O)NCc4cn(-c5ccc(Cl)c(Cl)c5)nn4)CC[C@]3(C)CC[C@]12C
IC50 (Hep 3B2 [1]): 2450 nM

CC1=C(O)C(=O)C=C2C1=CC=C1[C@@]2(C)CC[C@@]2(C)[C@@H]3C[C@](C)(C(=O)OCC(=O)NCc4cn(-c5ccc(C)cc5)nn4)CC[C@]3(C)CC[C@]12C
IC50 (Hep 3B2 [1]): 2720 nM

CC1=C(O)C(=O)C=C2C1=CC=C1[C@@]2(C)CC[C@@]2(C)[C@@H]3C[C@](C)(C(=O)OCCOc4cccc5ncccc45)CC[C@]3(C)CC[C@]12C
IC50 (Hep 3B2 [1]): 14400 nM

CC1=C(O)C(=O)C=C2C1=CC=C1[C@@]2(C)CC[C@@]2(C)[C@@H]3C[C@](C)(C(=O)OCCOc4ccc5ccc(=O)oc5c4)CC[C@]3(C)CC[C@]12C
IC50 (Hep 3B2 [1]): 2450 nM
